System: TK-10;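 note: growth inhibition of TK-10 cells, read out in a cell viability assay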
Assay: cells
Type: functional, cell-based, Homo sapiens
Settings: Homo sapiens, TK-10
Description: SANGER: Inhibition of human TK10 cell growth in a cell viability assay.

Row | IC50 [nM] | SMILES
1 | 462 | CC(C)c1ccccc1Cc1cc(C(=O)Nc2ccc(S(=O)(=O)c3ccccc3C(C)(C)C)cc2)c(O)c(O)c1O

System: NCI-H1838;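 note: growth inhibition of NCI-H1838 cells, determined with a cell viability readout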
Assay: cells
Type: functional, cell-based, Homo sapiens
Settings: Homo sapiens, NCI-H1838
Description: SANGER: Inhibition of human NCI-H1838 cell growth in a cell viability assay.

Row | IC50 [nM] | SMILES
2 | 2160 | CC(C)c1ccccc1Cc1cc(C(=O)Nc2ccc(S(=O)(=O)c3ccccc3C(C)(C)C)cc2)c(O)c(O)c1O

System: KURAMOCHI;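 note: growth inhibition of KURAMOCHI cells, read out with a cell viability assay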
Assay: cells
Type: functional, cell-based, Homo sapiens
Settings: Homo sapiens, KURAMOCHI
Description: SANGER: Inhibition of human KURAMOCHI cell growth in a cell viability assay.

Row | IC50 [nM] | SMILES
3 | 1940 | CC(C)c1ccccc1Cc1cc(C(=O)Nc2ccc(S(=O)(=O)c3ccccc3C(C)(C)C)cc2)c(O)c(O)c1O

System: IST-MES1;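 note: growth inhibition of IST-MES1 cells, measured with a cell viability assay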
Assay: cells
Type: functional, cell-based, Homo sapiens
Settings: Homo sapiens, IST-MES1
Description: SANGER: Inhibition of human IST-MES1 cell growth in a cell viability assay.

Row | IC50 [nM] | SMILES
4 | 214 | CC(C)c1ccccc1Cc1cc(C(=O)Nc2ccc(S(=O)(=O)c3ccccc3C(C)(C)C)cc2)c(O)c(O)c1O

System: GI-1;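 note: growth inhibition of human GI-1 cells, measured with a cell viability readout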
Assay: cells
Type: functional, cell-based, Homo sapiens
Settings: Homo sapiens, GI-1
Description: SANGER: Inhibition of human GI-1 cell growth in a cell viability assay.

Row | IC50 [nM] | SMILES
5 | 128 | CC(C)c1ccccc1Cc1cc(C(=O)Nc2ccc(S(=O)(=O)c3ccccc3C(C)(C)C)cc2)c(O)c(O)c1O

System: LB373-MEL-D;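 note: growth inhibition of the cell line, read out in a cell viability assay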
Assay: cells
Type: functional, cell-based, Homo sapiens
Settings: Homo sapiens, LB373-MEL-D
Description: SANGER: Inhibition of human LB373-MEL-D cell growth in a cell viability assay.

Row | IC50 [nM] | SMILES
6 | 431 | CC(C)c1ccccc1Cc1cc(C(=O)Nc2ccc(S(=O)(=O)c3ccccc3C(C)(C)C)cc2)c(O)c(O)c1O

System: KINGS-1;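 note: cell viability assay measuring suppression of KINGS-1 cell growth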
Assay: cells
Type: functional, cell-based, Homo sapiens
Settings: Homo sapiens, KINGS-1
Description: SANGER: Inhibition of human KINGS-1 cell growth in a cell viability assay.

Row | IC50 [nM] | SMILES
7 | 2750 | CC(C)c1ccccc1Cc1cc(C(=O)Nc2ccc(S(=O)(=O)c3ccccc3C(C)(C)C)cc2)c(O)c(O)c1O

System: SF-539;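 note: Read-out is a cell viability assay, with IC50 reflecting inhibition of cell growth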
Assay: cells
Type: functional, cell-based, Homo sapiens
Settings: Homo sapiens, SF-539
Description: SANGER: Inhibition of human SF539 cell growth in a cell viability assay.

Row | IC50 [nM] | SMILES
8 | 470 | CC(C)c1ccccc1Cc1cc(C(=O)Nc2ccc(S(=O)(=O)c3ccccc3C(C)(C)C)cc2)c(O)c(O)c1O

System: MLMA;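 note: growth inhibition of MLMA cells (human), determined through a cell viability readout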
Assay: cells
Type: functional, cell-based, Homo sapiens
Settings: Homo sapiens, MLMA
Description: SANGER: Inhibition of human MLMA cell growth in a cell viability assay.

Row | IC50 [nM] | SMILES
9 | 185 | CC(C)c1ccccc1Cc1cc(C(=O)Nc2ccc(S(=O)(=O)c3ccccc3C(C)(C)C)cc2)c(O)c(O)c1O

System: HD-MY-Z;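 note: growth inhibition of HD-MY-Z cells, read out with a cell viability assay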
Assay: cells
Type: functional, cell-based, Homo sapiens
Settings: Homo sapiens, HD-MY-Z
Description: SANGER: Inhibition of human HD-MY-Z cell growth in a cell viability assay.

Row | IC50 [nM] | SMILES
10 | 395 | CC(C)c1ccccc1Cc1cc(C(=O)Nc2ccc(S(=O)(=O)c3ccccc3C(C)(C)C)cc2)c(O)c(O)c1O

System: EW-16;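 note: growth inhibition of human EW-16 cells, read out as cell viability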
Assay: cells
Type: functional, cell-based, Homo sapiens
Settings: Homo sapiens, EW-16
Description: SANGER: Inhibition of human EW-16 cell growth in a cell viability assay.

Row | IC50 [nM] | SMILES
11 | 185 | CC(C)c1ccccc1Cc1cc(C(=O)Nc2ccc(S(=O)(=O)c3ccccc3C(C)(C)C)cc2)c(O)c(O)c1O

System: RCC10RGB;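 note: growth inhibition of human RCC10RGB cells, read out by a cell viability assay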
Assay: cells
Type: functional, cell-based, Homo sapiens
Settings: Homo sapiens, RCC10RGB
Description: SANGER: Inhibition of human RCC10RGB cell growth in a cell viability assay.

Row | IC50 [nM] | SMILES
12 | 13800 | CC(C)c1ccccc1Cc1cc(C(=O)Nc2ccc(S(=O)(=O)c3ccccc3C(C)(C)C)cc2)c(O)c(O)c1O

System: DJM-1;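 note: growth inhibition of human DJM-1 cells, read out by a cell viability assay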
Assay: cells
Type: functional, cell-based, Homo sapiens
Settings: Homo sapiens, DJM-1
Description: SANGER: Inhibition of human DJM-1 cell growth in a cell viability assay.

Row | IC50 [nM] | SMILES
13 | 520 | CC(C)c1ccccc1Cc1cc(C(=O)Nc2ccc(S(=O)(=O)c3ccccc3C(C)(C)C)cc2)c(O)c(O)c1O

System: HCE-4;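 note: cell viability assay measuring inhibition of growth in the human HCE-4 cell line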
Assay: cells
Type: functional, cell-based, Homo sapiens
Settings: Homo sapiens, HCE-4
Description: SANGER: Inhibition of human HCE-4 cell growth in a cell viability assay.

Row | IC50 [nM] | SMILES
14 | 469 | CC(C)c1ccccc1Cc1cc(C(=O)Nc2ccc(S(=O)(=O)c3ccccc3C(C)(C)C)cc2)c(O)c(O)c1O

System: KS-1;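 note: growth inhibition of KS-1 cells, read out with a cell viability assay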
Assay: cells
Type: functional, cell-based, Homo sapiens
Settings: Homo sapiens, KS-1
Description: SANGER: Inhibition of human KS-1 cell growth in a cell viability assay.

Row | IC50 [nM] | SMILES
15 | 322 | CC(C)c1ccccc1Cc1cc(C(=O)Nc2ccc(S(=O)(=O)c3ccccc3C(C)(C)C)cc2)c(O)c(O)c1O

System: MMAC-SF;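 note: growth inhibition of human MMAC-SF cells, read out with a cell viability assay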
Assay: cells
Type: functional, cell-based, Homo sapiens
Settings: Homo sapiens, MMAC-SF
Description: SANGER: Inhibition of human MMAC-SF cell growth in a cell viability assay.

Row | IC50 [nM] | SMILES
16 | 3140 | CC(C)c1ccccc1Cc1cc(C(=O)Nc2ccc(S(=O)(=O)c3ccccc3C(C)(C)C)cc2)c(O)c(O)c1O

System: A388;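 note: growth inhibition of human A388 cells, read out with a cell viability assay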
Assay: cells
Type: functional, cell-based, Homo sapiens
Settings: Homo sapiens, A388
Description: SANGER: Inhibition of human A388 cell growth in a cell viability assay.

Row | IC50 [nM] | SMILES
17 | 167 | CC(C)c1ccccc1Cc1cc(C(=O)Nc2ccc(S(=O)(=O)c3ccccc3C(C)(C)C)cc2)c(O)c(O)c1O

System: HCC1187;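 note: growth inhibition of HCC1187 cells, read out with a cell viability assay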
Assay: cells
Type: functional, cell-based, Homo sapiens
Settings: Homo sapiens, HCC1187
Description: SANGER: Inhibition of human HCC1187 cell growth in a cell viability assay.

Row | IC50 [nM] | SMILES
18 | 425 | CC(C)c1ccccc1Cc1cc(C(=O)Nc2ccc(S(=O)(=O)c3ccccc3C(C)(C)C)cc2)c(O)c(O)c1O

System: NTERA-2-cl-D1;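 note: inhibition of cell growth, measured with a cell viability assay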
Assay: cells
Type: functional, cell-based, Homo sapiens
Settings: Homo sapiens, NTERA-2-cl-D1
Description: SANGER: Inhibition of human NTERA-S-cl-D1 cell growth in a cell viability assay.

Row | IC50 [nM] | SMILES
19 | 167 | CC(C)c1ccccc1Cc1cc(C(=O)Nc2ccc(S(=O)(=O)c3ccccc3C(C)(C)C)cc2)c(O)c(O)c1O

System: PSN1;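 note: suppression of growth of human PSN1 cells, read out by a cell viability assay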
Assay: cells
Type: functional, cell-based, Homo sapiens
Settings: Homo sapiens, PSN1
Description: SANGER: Inhibition of human PSN1 cell growth in a cell viability assay.

Row | IC50 [nM] | SMILES
20 | 167 | CC(C)c1ccccc1Cc1cc(C(=O)Nc2ccc(S(=O)(=O)c3ccccc3C(C)(C)C)cc2)c(O)c(O)c1O

System: LB2241-RCC;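 note: cell viability assay measuring how strongly the cultured human renal carcinoma line is prevented from growing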
Assay: cells
Type: functional, cell-based, Homo sapiens
Settings: Homo sapiens, LB2241-RCC
Description: SANGER: Inhibition of human LB2241-RCC cell growth in a cell viability assay.

Row | IC50 [nM] | SMILES
21 | 147 | CC(C)c1ccccc1Cc1cc(C(=O)Nc2ccc(S(=O)(=O)c3ccccc3C(C)(C)C)cc2)c(O)c(O)c1O

System: NCI-H23;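 note: cell viability assay measuring growth inhibition of NCI-H23 cells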
Assay: cells
Type: functional, cell-based, Homo sapiens
Settings: Homo sapiens, NCI-H23
Description: SANGER: Inhibition of human NCI-H23 cell growth in a cell viability assay.

Row | IC50 [nM] | SMILES
22 | 348 | CC(C)c1ccccc1Cc1cc(C(=O)Nc2ccc(S(=O)(=O)c3ccccc3C(C)(C)C)cc2)c(O)c(O)c1O

System: RKO;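 note: growth inhibition of human RKO cells, read out with a cell viability assay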
Assay: cells
Type: functional, cell-based, Homo sapiens
Settings: Homo sapiens, RKO
Description: SANGER: Inhibition of human RKO cell growth in a cell viability assay.

Row | IC50 [nM] | SMILES
23 | 15.2 | CC(C)c1ccccc1Cc1cc(C(=O)Nc2ccc(S(=O)(=O)c3ccccc3C(C)(C)C)cc2)c(O)c(O)c1O

System: ES5;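 note: growth inhibition of human ES5 cells, read out by a cell viability assay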
Assay: cells
Type: functional, cell-based, Homo sapiens
Settings: Homo sapiens, ES5
Description: SANGER: Inhibition of human ES5 cell growth in a cell viability assay.

Row | IC50 [nM] | SMILES
24 | 884 | CC(C)c1ccccc1Cc1cc(C(=O)Nc2ccc(S(=O)(=O)c3ccccc3C(C)(C)C)cc2)c(O)c(O)c1O

System: NOS-1;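 note: growth inhibition of the human NOS-1 cell line, read out with a cell viability assay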
Assay: cells
Type: functional, cell-based, Homo sapiens
Settings: Homo sapiens, NOS-1
Description: SANGER: Inhibition of human NOS-1 cell growth in a cell viability assay.

Row | IC50 [nM] | SMILES
25 | 235 | CC(C)c1ccccc1Cc1cc(C(=O)Nc2ccc(S(=O)(=O)c3ccccc3C(C)(C)C)cc2)c(O)c(O)c1O

System: no-10;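 note: growth inhibition of no-10 cells, read out with a cell viability assay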
Assay: cells
Type: functional, cell-based, Homo sapiens
Settings: Homo sapiens
Description: SANGER: Inhibition of human no-10 cell growth in a cell viability assay.

Row | IC50 [nM] | SMILES
26 | 277 | CC(C)c1ccccc1Cc1cc(C(=O)Nc2ccc(S(=O)(=O)c3ccccc3C(C)(C)C)cc2)c(O)c(O)c1O

System: EKVX;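 note: growth inhibition of human EKVX cells, read out with a cell viability assay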
Assay: cells
Type: functional, cell-based, Homo sapiens
Settings: Homo sapiens, EKVX
Description: SANGER: Inhibition of human EKVX cell growth in a cell viability assay.

Row | IC50 [nM] | SMILES
27 | 7140 | CC(C)c1ccccc1Cc1cc(C(=O)Nc2ccc(S(=O)(=O)c3ccccc3C(C)(C)C)cc2)c(O)c(O)c1O

System: SW 954;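 note: growth inhibition of SW954 human cancer cells, read out as cell viability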
Assay: cells
Type: functional, cell-based, Homo sapiens
Settings: Homo sapiens, SW 954
Description: SANGER: Inhibition of human SW954 cell growth in a cell viability assay.

Row | IC50 [nM] | SMILES
28 | 467 | CC(C)c1ccccc1Cc1cc(C(=O)Nc2ccc(S(=O)(=O)c3ccccc3C(C)(C)C)cc2)c(O)c(O)c1O

System: CW-2;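 note: growth inhibition of CW-2 cells, read out by a cell viability assay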
Assay: cells
Type: functional, cell-based, Homo sapiens
Settings: Homo sapiens, CW-2
Description: SANGER: Inhibition of human CW-2 cell growth in a cell viability assay.

Row | IC50 [nM] | SMILES
29 | 446 | CC(C)c1ccccc1Cc1cc(C(=O)Nc2ccc(S(=O)(=O)c3ccccc3C(C)(C)C)cc2)c(O)c(O)c1O

System: ES8;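 note: growth inhibition of human ES8 cells, read out with a cell viability assay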
Assay: cells
Type: functional, cell-based, Homo sapiens
Settings: Homo sapiens, ES8
Description: SANGER: Inhibition of human ES8 cell growth in a cell viability assay.

Row | IC50 [nM] | SMILES
30 | 119 | CC(C)c1ccccc1Cc1cc(C(=O)Nc2ccc(S(=O)(=O)c3ccccc3C(C)(C)C)cc2)c(O)c(O)c1O

System: SHP77;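 note: growth inhibition of human SHP-77 cells measured by a cell viability assay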
Assay: cells
Type: functional, cell-based, Homo sapiens, SHP-77
Settings: Homo sapiens, SHP77
Description: SANGER: Inhibition of human SHP-77 cell growth in a cell viability assay.

Row | IC50 [nM] | SMILES
31 | 451 | CC(C)c1ccccc1Cc1cc(C(=O)Nc2ccc(S(=O)(=O)c3ccccc3C(C)(C)C)cc2)c(O)c(O)c1O

System: OS-RC-2;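 note: growth inhibition of human OS-RC-2 cells, measured by a cell viability assay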
Assay: cells
Type: functional, cell-based, Homo sapiens
Settings: Homo sapiens, OS-RC-2
Description: SANGER: Inhibition of human OS-RC-2 cell growth in a cell viability assay.

Row | IC50 [nM] | SMILES
32 | 737 | CC(C)c1ccccc1Cc1cc(C(=O)Nc2ccc(S(=O)(=O)c3ccccc3C(C)(C)C)cc2)c(O)c(O)c1O
